Laboratory results taken from patent publication US6204293A, “Inhibitors of protein isoprenyl transferases” (University of Pittsburgh, priority 1998, dated 2001).
Counter-ions that a name gives are not always drawn. Like-named read-outs stand apart in the source and are kept apart here.

Molecular target: T1, Rat brain protein farnesyltransferase (Rattus norvegicus, UniProt Q02293+Q04631)
T1 construct: Rat brain protein farnesyltransferase activity is measured; from tissue; host or cells: rat brain
T1 sequence (Q02293 whole entry, one chain of several): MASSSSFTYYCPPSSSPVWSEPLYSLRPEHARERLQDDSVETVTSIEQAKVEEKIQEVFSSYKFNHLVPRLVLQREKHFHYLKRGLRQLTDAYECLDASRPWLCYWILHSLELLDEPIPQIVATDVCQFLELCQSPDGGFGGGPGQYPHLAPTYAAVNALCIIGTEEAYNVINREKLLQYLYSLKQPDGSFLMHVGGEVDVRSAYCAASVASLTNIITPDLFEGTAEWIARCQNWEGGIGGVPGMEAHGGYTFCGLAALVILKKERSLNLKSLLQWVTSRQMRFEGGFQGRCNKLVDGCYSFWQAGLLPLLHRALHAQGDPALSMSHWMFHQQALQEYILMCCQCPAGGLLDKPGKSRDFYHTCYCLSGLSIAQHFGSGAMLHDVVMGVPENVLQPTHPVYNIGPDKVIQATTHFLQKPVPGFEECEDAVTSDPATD
Assay: % inhibition of farnesylation, scintillation proximity assay with biotin-K Ras B fragment
Assay type: biochemical
Settings: for % inhibition at 1 × 10^-6 M: Table 2; for % inhibition at 1 × 10^-5 M: Table 1
Procedure, shortened: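 Scintillation proximity read-out of farnesylation, using a biotinylated K Ras B fragment (0.1 mM final) in place of biotin-lamin. Enzyme purified from rat brain; results given as % inhibition.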

[1] = read-out: % inhibition at 1 × 10^-7 M, Table 3, 1 × 10^-7 M

SMILES: CSCC[C@H](NC(=O)c1ccc(CN(CC23CC4CC(CC(C4)C2)C3)c2ccccc2)cc1-c1ccccc1C)C(=O)O [Example 510]
- % inhibition at 1 × 10^-6 M: 84%

SMILES: CSCC[C@H](NC(=O)c1ccc(CNc2cccc(C)c2)cc1-c1ccccc1)C(=O)O [Example 674]
- % inhibition at 1 × 10^-5 M: 40%

SMILES: CSCC[C@H](NC(=O)c1ccc(COCc2cccs2)cc1-c1ccccc1C)C(=O)O [Example 273, [4-(2-thienylmethoxymethyl)-2-(2-methylphenyl)benzoyl]methionine Lithium salt]
- inhibition at 1 µM (read-out: % inhibition at 1 × 10^-6 M): 96%

SMILES: CSCC[C@H](NC(=O)c1ccc(CNC(C)(C)Cc2ccccc2)cc1-c1ccccc1C)C(=O)O [Example 307]
- % inhibition at 1 × 10^-6 M: 82%

SMILES: COc1ccc(CO[C@H](COCc2ccc(C(=O)N[C@@H](CCSC)C(=O)O)c(-c3ccccc3C)c2)CC2CCCCC2)cc1 [Example 1316, N-[4-(3-Cyclohexyl-2-(4-methoxybenzyloxy)prop-1-yloxymethyl)-2-(2-methylphenyl)benzoyl]methionine Lithium Salt]
- inhibition at 0.1 µM (read-out: % inhibition at 0.1 μM (*), Table 6, * footnote 0.1 μM (title: 0.1 mM)): 78%

SMILES: COCCOCOC[C@H](CC1CCCCC1)OCc1ccc(C(=O)N[C@@H](CCSC)C(=O)O)c(-c2ccccc2C)c1 [Example 1050, N-[4-(3-cyclohexyl-1-(2-methoxyethoxymethyleneoxy)prop-2-yloxymethyl)-2-(2-methylphenyl)benzoyl]methionine, lithium salt]
- inhibition at 0.01 µM (read-out: % inhibition at 0.01 μM (**), Table 6, ** footnote 0.01 μM (title: 0.01 mM)): 62%

SMILES: CSCC[C@H](NC(=O)c1ccc(COCc2ccc(-c3ccc(Cl)cc3)o2)cc1-c1ccccc1C)C(=O)NS(C)(=O)=O [Example 818, N-[4-(5-(4-chlorophenyl)furan-2-ylmethoxymethyl)-2-(2-methylphenyl)benzoyl]methionine methanesulfonimide]
- inhibition at 0.1 µM [1]: 78%

SMILES: CSCC[C@H](NC(=O)c1ccc(CN(CCC2CCCCC2)Cc2ccccc2)cc1-c1ccccc1C)C(=O)[O-].[Li+] [Example 605]
- % inhibition at 1 × 10^-8 M (Table 4, 1 × 10^-8 M): 68%

SMILES: CSCC[C@H](NC(=O)c1ccc(CNc2ccc3c(c2)Cc2ccccc2-3)cc1-c1ccccc1)C(=O)O [Example 706]
- % inhibition at 1 × 10^-5 M: 53%

SMILES: CSCC[C@H](NC(=O)c1ccc(CN(C2CC2)C(C)(C)Cc2ccccc2)cc1-c1ccccc1C)C(=O)O [Example 315]
- % inhibition at 1 × 10^-6 M: 93%

SMILES: CSCC[C@H](NC(=O)c1ccc(CN(C2CC2)C2(CC3CCCCC3)CC2)cc1-c1ccccc1C)C(=O)O [Example 324]
- % inhibition at 1 × 10^-6 M: 98%

SMILES: CSCC[C@H](NC(=O)c1ccc(CSc2ccccc2C(C)C)cc1-c1ccccc1C)C(=O)O [Example 739]
- inhibition at 0.1 µM [1]: 83%

SMILES: CSCC[C@H](NC(=O)c1ccc(CNc2nccs2)cc1-c1ccccc1)C(=O)O [Example 374]
- % inhibition at 1 × 10^-5 M: 61%
